Results reported in ChEMBL document CHEMBL2074222, “Transport properties of nonsteroidal anti-inflammatory drugs by organic anion transporter 1 expressed in Xenopus laevis oocytes” (Mol Pharmacol, 1999).

Assays:
Format in all cases: functional, cell-based, Oocyte
[1] = target: T1, Solute carrier family 22 member 6 (SLC22A6) (Rattus norvegicus, UniProt O35956); assay: TP_TRANSPORTER: inhibition of PAH uptake (PAH: 2 uM, Benzydamine: 1000 uM) in Xenopus laevis oocytes; conditions: probe PAH
T1 sequence (O35956 whole entry): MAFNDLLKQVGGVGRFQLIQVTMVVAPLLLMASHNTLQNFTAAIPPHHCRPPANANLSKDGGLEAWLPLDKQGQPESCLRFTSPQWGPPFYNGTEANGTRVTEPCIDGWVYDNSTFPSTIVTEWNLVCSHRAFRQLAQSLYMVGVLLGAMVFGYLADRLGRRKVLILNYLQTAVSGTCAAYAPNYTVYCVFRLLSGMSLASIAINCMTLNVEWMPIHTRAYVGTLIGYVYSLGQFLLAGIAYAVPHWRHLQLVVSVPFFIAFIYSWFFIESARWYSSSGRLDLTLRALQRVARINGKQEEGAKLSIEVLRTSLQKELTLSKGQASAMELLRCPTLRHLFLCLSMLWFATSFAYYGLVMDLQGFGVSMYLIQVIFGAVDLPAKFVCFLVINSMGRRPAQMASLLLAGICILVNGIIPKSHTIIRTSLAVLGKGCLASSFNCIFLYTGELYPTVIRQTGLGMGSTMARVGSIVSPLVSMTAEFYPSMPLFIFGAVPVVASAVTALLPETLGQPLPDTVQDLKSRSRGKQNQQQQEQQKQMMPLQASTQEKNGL

[2] = target: T1, Solute carrier family 22 member 6 (SLC22A6); assay: TP_TRANSPORTER: inhibition of PAH uptake (PAH: 2 uM, Diflunisal: 1000 uM) in Xenopus laevis oocytes; conditions: probe PAH
[3] = target: T1, Solute carrier family 22 member 6 (SLC22A6); assay: TP_TRANSPORTER: inhibition of PAH uptake (PAH: 2 uM, Meclofenamate: 1000 uM) in Xenopus laevis oocytes; conditions: probe PAH
[4] = target: T1, Solute carrier family 22 member 6 (SLC22A6); assay: TP_TRANSPORTER: inhibition of PAH uptake (PAH: 2 uM, Antipyrine: 1000 uM) in Xenopus laevis oocytes; conditions: probe PAH
[5] = target: T2, Solute carrier family 22 member 6 (Rattus norvegicus, UniProt O35956); assay: TP_TRANSPORTER: inhibition of PAH uptake in Xenopus laevis oocytes
T2 sequence (O35956 whole entry): T1 sequence (O35956 whole entry)

[6] = target: T1, Solute carrier family 22 member 6 (SLC22A6); assay: TP_TRANSPORTER: inhibition of PAH uptake (PAH: 2 uM, Tolmetin: 1000 uM) in Xenopus laevis oocytes; conditions: probe PAH
[7] = target: T1, Solute carrier family 22 member 6 (SLC22A6); assay: TP_TRANSPORTER: inhibition of PAH uptake (PAH: 2 uM, Flurbiprofen: 1000 uM) in Xenopus laevis oocytes; conditions: probe PAH
[8] = target: T1, Solute carrier family 22 member 6 (SLC22A6); assay: TP_TRANSPORTER: inhibition of PAH uptake (PAH: 2 uM, Diclofenac: 1000 uM) in Xenopus laevis oocytes; conditions: probe PAH
[9] = target: T1, Solute carrier family 22 member 6 (SLC22A6); assay: TP_TRANSPORTER: inhibition of PAH uptake (PAH: 2 uM, Phenylbutazone: 1000 uM) in Xenopus laevis oocytes; conditions: probe PAH
[10] = target: T1, Solute carrier family 22 member 6 (SLC22A6); assay: TP_TRANSPORTER: inhibition of PAH uptake (PAH: 2 uM, […]: 1000 uM) in Xenopus laevis oocytes; conditions: probe PAH
[11] = target: T1, Solute carrier family 22 member 6 (SLC22A6); assay: TP_TRANSPORTER: inhibition of PAH uptake (PAH: 2 uM, Ketoprofen: 1000 uM) in Xenopus laevis oocytes; conditions: probe PAH

NCc1ccccc1 [BENZYLAMINE]
inhibition at 1000 µM [1]: 60%

O=C(O)c1cc(-c2ccc(F)cc2F)ccc1O [DIFLUNISAL]
inhibition at 1000 µM [2]: 100%

Cc1ccc(Cl)c(Nc2ccccc2C(=O)O)c1Cl [MECLOFENAMIC ACID]
inhibition at 1000 µM [3]: 99.8%

Cc1cc(=O)n(-c2ccccc2)n1C [ANTIPYRINE]
inhibition at 1000 µM [4]: 37.8%

CCCCC1C(=O)N(c2ccccc2)N(c2ccc(O)cc2)C1=O (stereo unspecified) [OXYPHENBUTAZONE ANHYDROUS]
Ki [5]: 32 µM

COc1ccc2cc([C@H](C)C(=O)O)ccc2c1 [NAPROXEN]
Ki [5]: 2 µM

Cc1ccc(C(=O)c2ccc(CC(=O)O)n2C)cc1 [TOLMETIN]
inhibition at 1000 µM [6]: 99.5%

CC(=O)Nc1ccc(O)cc1 [ACETAMINOPHEN]
Ki [5]: 2100 µM

CC(C(=O)O)c1ccc(-c2ccccc2)c(F)c1 (stereo unspecified) [FLURBIPROFEN]
inhibition at 1000 µM [7]: 100%

O=C(O)Cc1ccccc1Nc1c(Cl)cccc1Cl [DICLOFENAC]
inhibition at 1000 µM [8]: 100%

CCOc1ccc(NC(C)=O)cc1 [PHENACETIN]
Ki [5]: 488 µM

CCCCC1C(=O)N(c2ccccc2)N(c2ccccc2)C1=O [PHENYLBUTAZONE]
inhibition at 1000 µM [9]: 98.8%

COc1ccc2c(c1)c(CC(=O)O)c(C)n2C(=O)c1ccc(Cl)cc1 [INDOMETHACIN]
Ki [5]: 10 µM

Cc1c(N(C)C)c(=O)n(-c2ccccc2)n1C [AMINOPYRINE]
inhibition at 1000 µM [10]: 23.8%

O=C(O)CNC(=O)c1ccccc1O [SALICYLURIC ACID]
Ki [5]: 11 µM

CC(C(=O)O)c1cccc(C(=O)c2ccccc2)c1 (stereo unspecified) [KETOPROFEN]
inhibition at 1000 µM [11]: 100%
